{"source": "paper PMC9696335", "about": "“Natural Inhibitors Targeting the Localization of Lipoprotein System in Vibrio parahaemolyticus” (International Journal of Molecular Sciences, 2022)", "key": {"[1]": {"biological_target": "T1, LolB (Vibrio parahaemolyticus, UniProt Q87RN6)", "T1 construct": "Residues 26-212, N-terminal His6 tag", "T1 sequence (Q87RN6 17-203)": "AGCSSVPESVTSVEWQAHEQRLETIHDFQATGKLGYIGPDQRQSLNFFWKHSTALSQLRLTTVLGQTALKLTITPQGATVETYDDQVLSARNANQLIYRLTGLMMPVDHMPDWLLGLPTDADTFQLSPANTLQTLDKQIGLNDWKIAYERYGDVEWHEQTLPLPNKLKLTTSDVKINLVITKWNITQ", "test": "intrinsic fluorescence quenching of purified LolB (Stern-Volmer Ksv; Kd only said to be micromolar)", "type": "binding"}, "[2]": {"biological_target": "T1, LolB", "test": "intrinsic fluorescence quenching of purified LolB, one-site binding fit"}}, "data": [{"smiles": "C=C1C[C@@]23CC[C@H]4[C@@](C)(CCC[C@@]4(C)C(=O)O[C@@H]4O[C@H](CO)[C@@H](O)[C@H](O)[C@H]4O)[C@@H]2CC[C@]1(O[C@@H]1O[C@H](CO)[C@@H](O)[C@H](O)[C@H]1O[C@@H]1O[C@H](CO)[C@@H](O)[C@H](O)[C@H]1O)C3", "note": "[stevioside]", "values": [{"measurement": "Ksv (10^4 L/mol)", "setting": "[1]", "result": "6.1570 10^4 L/mol"}]}, {"smiles": "C[C@@H]1O[C@@H](OC[C@H]2O[C@@H](Oc3c(-c4ccc(O)c(O)c4)oc4cc(O)cc(O)c4c3=O)[C@H](O)[C@@H](O)[C@@H]2O)[C@H](O)[C@H](O)[C@H]1O", "note": "[rutin]", "values": [{"measurement": "Ksv (10^4 L/mol)", "setting": "[1]", "result": "8.7014 10^4 L/mol"}]}, {"smiles": "C[C@@H]1O[C@@H](OC[C@H]2O[C@@H](Oc3c(-c4ccc(OCCO)c(OCCO)c4)oc4cc(OCCO)cc(O)c4c3=O)[C@H](O)[C@@H](O)[C@@H]2O)[C@H](O)[C@H](O)[C@H]1O", "note": "[troxerutin]", "values": [{"measurement": "Ksv (10^4 L/mol)", "setting": "[1]", "result": "14.2317 10^4 L/mol"}]}, {"smiles": "Oc1cc(O)c2c(c1)O[C@@H](c1ccc(O)c(O)c1)[C@@H](O[C@]1(c3ccc(O)c(O)c3)Oc3cc(O)cc(O)c3[C@@H](O)[C@H]1O)C2", "note": "[procyanidin]", "values": [{"measurement": "Kd", "setting": "[2]", "result": "14.7 ± 4.65", "unit": "µM"}]}]}
